Source: paper PMC6743424, “Phenolic acid phenethylesters and their corresponding ketones: Inhibition of 5‐lipoxygenase and stability in human blood and HepaRG cells” (Pharmacology Research & Perspectives, 2019)
Entries after “also recorded” stand apart in the source; their conditions may differ.

What was measured:
HepaRG cells [1] = test: Residual inhibition of 5‐LO product biosynthesis in blood after incubation with HepaRG cells; assay type: in vitro ADME, human; details: 50 µmol/L with HepaRG cells, after 60 minutes; medium added to blood, zymosan, LTB4
Procedure: (§1) Differentiated HepaRG cells, plated in 24 well plates, were washed with hepatocyte suspension medium (Williams E‐medium without phenol red, supplemented with 2 mmol/L Glutamax and […] HEPES) before addition of hepatocyte suspension medium (250 µL/well) containing (30 or 50 µmol/L) of the test compounds or their diluent. Cells were then incubated for 7.5, 15, 30, 60 or 90 minutes at 37°C after which the medium was removed.
In experiments where the inhibitory capacity of test compounds was to be determined after incubation with HepaRG cells, 125 µL of the hepatocyte suspension medium containing test compounds that had been collected at different time points from HepaRG cultures was added to 1 mL of heparinized blood. After a 5 minutes of preincubation, blood was then stimulated with opsonized zymosan and processed for HPLC analysis of 5‐LO metabolites as described above.
Figure 6 Stability of the test compounds for the inhibition of the biosynthesis of 5‐LO products following incubation with HepaRG cells. HepaRG cells were incubated with […] of hepatocyte suspension medium containing 50 µmol/L of test compounds for the indicated times at 37°C. Hepatocyte suspension medium (125 µL) was then removed and added to 1 mL of blood that was then incubated for 5 minutes and then stimulated with opsonized zymosan (4 mg/mL) for 30 minutes at 37°C. Blood was then centrifuged and plasma was collected and added to 1.2 mL of CH3OH:CH3CN (1:1). Samples were processed for analysis using RP‐HPLC for LTB4 quantification. Data are expressed as means ± SEM of at least three independent experiments. *Difference from time = 0, as determined using One‐way ANOVA with Dunnett's multiple comparison test (P < .05)

5‐LO [2] = biological target: T1, 5‐LO (Homo sapiens, UniProt P09917); test: Biosynthesis of 5‐LO products in stimulated HEK293 cells expressing 5‐LO and FLAP; assay type: cell-based; set-up: expressed in transfected cells; host or cells: HEK293 cells (ATCC), stably transfected; details: 1 μmol/L, 5 min preincubation; 10 μmol/L A23187 + 10 μmol/L arachidonic acid 15 min
T1 sequence (P09917 1-674): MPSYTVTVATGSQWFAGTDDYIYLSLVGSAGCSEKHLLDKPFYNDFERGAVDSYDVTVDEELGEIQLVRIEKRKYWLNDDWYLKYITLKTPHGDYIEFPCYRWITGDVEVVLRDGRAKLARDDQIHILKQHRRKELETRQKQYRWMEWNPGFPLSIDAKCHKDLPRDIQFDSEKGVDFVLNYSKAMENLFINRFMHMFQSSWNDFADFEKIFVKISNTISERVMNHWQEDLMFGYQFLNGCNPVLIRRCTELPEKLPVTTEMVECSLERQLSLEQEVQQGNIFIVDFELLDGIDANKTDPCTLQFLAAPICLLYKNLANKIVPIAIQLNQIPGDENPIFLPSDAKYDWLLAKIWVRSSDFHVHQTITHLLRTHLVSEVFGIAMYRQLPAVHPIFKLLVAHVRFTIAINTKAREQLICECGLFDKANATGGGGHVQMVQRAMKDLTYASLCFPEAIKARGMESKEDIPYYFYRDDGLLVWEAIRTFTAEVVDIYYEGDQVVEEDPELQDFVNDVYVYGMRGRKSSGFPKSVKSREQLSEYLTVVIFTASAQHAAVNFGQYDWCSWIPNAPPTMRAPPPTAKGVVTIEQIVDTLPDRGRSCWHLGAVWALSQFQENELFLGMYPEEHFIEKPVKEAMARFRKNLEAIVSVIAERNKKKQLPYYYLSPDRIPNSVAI
Procedure: HEK293 cells were obtained from ATCC (Manassas) and were cultured in Dulbecco’s Modified Eagle Medium (DMEM) supplemented with 10% fetal bovine serum. Cells were stably transfected with 5‐lipoxygenase and 5‐lipoxygenase activating protein (FLAP) as previously described.31
Transfected HEK293 cells were collected and resuspended in Hank's balanced salt solution (HBSS, Lonza) containing 1.6 mmol/L CaCl2 at a concentration of 5 × 10^5 cells/mL, and were preincubated with each compound at concentration of 1 µmol/L for 5 minutes at 37°C. Cells were then stimulated for 15 minutes at 37°C with the addition of 10 µmol/L calcium ionophore A23187 (Sigma‐Aldrich) and 10 µmol/L arachidonic acid (Cayman Chemical).28 Stimulations were stopped by adding 0.5 volume of cold CH3OH:CH3CN (1:1) containing 100 ng/mL of prostaglandin B2 (PGB2) as internal standard. Samples were stored at −20°C and analyzed for 5‐LO products using reversed‐phase high‐performance liquid chromatography (RP‐HPLC) as described previously.32
Figure 2 The structures of the tested compounds (A) and their effects on the biosynthesis of 5‐LO products in transfected HEK293 cells (B). HEK293 cells expressing 5‐LO and FLAP were incubated in presence of the indicated compounds (1 μmol/L) or their diluent (Control, 0.1% DMSO) for 5 minutes, followed by the addition of 10 μmol/L calcium ionophore A23187 and 10 μmol/L arachidonic acid for 15 minutes. Reactions were then stopped, and samples were processed for analysis of 5‐LO products using RP‐HPLC. Total 5‐LO products measured represent the sum of LTB4, its trans isomers and 5‐hydroxyeicosatetraenoic acid. Data are expressed as means ± SEM of at least three independent experiments. *Difference from control as determined using one‐way ANOVA with Dunnett's multiple comparison test (P < .05)

5‐LO [3] = details: cited from earlier work
HepaRG cells [4] = test: Kinetics of test compound disappearance in HepaRG cell culture (HPLC); assay type: in vitro ADME, human; details: 30 µmol/L, 37°C; mean (95% confidence interval), four experiments
Procedure: Undifferentiated cryopreserved HepaRG cells (BioPredic International) were seeded in 12 or 24 well plates at 1.1 × 10^5 and 0.55 × 10^5 cells per well, respectively. Cells were cultured for 14 days in Williams E‐medium supplemented with 1% penicillin‐streptomycin (10 000 U/mL), 10% fœtal bovine serum (FBS), 50 mg/L hydrocortisone hemisuccinate, 5 mg/L insulin and 2 mmol/L Glutamax, and the medium was renewed every 2‐3 days. After 14 days, the culture medium was replaced by the same formulation as above supplemented with 2% dimethyl sulfoxide (DMSO) to induce differentiation. Cells were considered differentiated and ready for experiments after 14 days of differentiation (28 days after seeding).
as §1
In experiments where the test compounds incubated with HepaRG cells were to be measured, the cell layer was washed with 250 µL of hepatocyte suspension medium which was then pooled with the first medium. The mixture was then added to 250 µL of ice cold CH3OH:CH3CN (1:1, vol:vol) containing 10 µmol/L of phenethyl 3,4,5‐trimethoxycinnamate as an internal standard. The resulting solution was frozen at −80°C for 2 hour to precipitate any dissolved proteins, centrifuged at 1800g and the supernatant transferred to vials and stored at −20°C until HPLC analysis.
Figure 5 Kinetics of test compound disappearance in HepaRG cell culture. (A) HepaRG cells were incubated in 250 µL of hepatocyte suspension medium containing 30 µmol/L of test compounds for the indicated times at 37°C. Supernatants were removed and added to 250 µL of ice cold CH3OH:CH3CN (1:1 vol:vol) containing 10 µmol/L of phenethyl 3,4,5‐trimethoxycinnamate as an internal standard. The cell layer was washed with 250 µL of hepatocyte suspension medium and added to the above mixture. Samples were centrifuged at 1900g and the supernatants were collected for HPLC analysis as described in the Methods. Values are means ± SEM. (B) Calculated half‐lives of the test compounds in HepaRG cell cultures. Values are means (95% confidence interval). All data are from four independent experiments TEXT PRINTED IN THE PICTURE: (B) CAPE (2): Half-life (Minutes): 4.70 (4.42 - 5.02) | (B) 7: Half-life (Minutes): 6.42 (5.72 -7.31) | (B) 5: Half-life (Minutes): 3.71 (3.67-3.74) | (B) 8: Half-life (Minutes): 6.48 (6.01-7.04) | (B) 9: Half-life (Minutes): 4.38 (4.23 - 4.55) | (B) 10: Half-life (Minutes): 11.32 (10.21- 12.71)

5‐LO [5] = biological target: T1, 5‐LO; test: Ex vivo whole blood stimulation with opsonized zymosan, 5‐LO products; assay type: cell-based; set-up: endogenous in cells; host or cells: human polymorphonuclear leukocytes isolated from heparinized blood; details: 5‐LO product biosynthesis in whole blood, mean (95% confidence interval)
Procedure: Blood was collected in tubes containing heparin as anticoagulant. Test compounds or their diluent control (DMSO, 0.1%) were added to 1 mL of heparinized blood at the indicated concentrations and incubated for 5 minutes in a water bath at 37°C. Stimulation was initiated with the addition of 125 μL of 40 mg/mL of opsonized zymosan, samples were then gently vortexed and incubated at 37°C for 30 minutes.34 Samples were then centrifuged at 960g for 10 minutes at 4°C, plasma was removed and added to tubes containing 4 volumes of CH3OH:CH3CN (1:1) containing 100 ng/mL of PGB2 as internal standard. Samples were stored overnight at −20°C, and then centrifuged at 3300g for 10 minutes. Samples were then purified on C18 cartridges, were eluted with CH3OH, dried under nitrogen, resuspended in 46% of CH3OH:CH3CN (1:1), and analyzed using RP‐HPLC as described above.

5‐LO [6] = biological target: T1, 5‐LO; test: Biosynthesis of 5‐LO products in thapsigargin‐stimulated human PMNL; assay type: cell-based; set-up: endogenous in cells; host or cells: human polymorphonuclear leukocytes isolated from heparinized blood; details: 5‐LO product biosynthesis in human PMNL; mean (95% confidence interval)
Procedure: Heparinized blood (see Ethics statement) was collected, centrifuged at 200g for 10 minutes to collect plasma, and erythrocytes were sedimented in dextran. PMNL were obtained after centrifugation on a lymphocyte separation medium cushion (density, 1.077 g/mL) (Wisent) at 900 g for 20 minutes, followed by hypotonic lysis to remove residual erythrocytes.33 PMNL were counted and resuspended at 10^7 cells/mL in HBSS supplemented with 1.6 mmol/L CaCl2 and 0.3 U/mL adenosine deaminase (Sigma‐Aldrich). PMNL were preincubated with the test compounds or their diluent (0.1% DMSO) for 5 minutes at 37°C and were then stimulated with 1 µmol/L thapsigargin (Sigma‐Aldrich) for 15 minutes at 37°C.27 Reactions were stopped by adding two volumes of CH3OH:CH3CN (1:1) containing the internal standard PGB2 (100 ng/mL), and samples were processed for RP‐HPLC analysis of 5‐LO products.
(A) The structures of CAPE (2) and its analogues investigated in this study. (B) Isolated human PMNL were incubated in presence of test compounds (1 μmol/L) or their diluent (Control, 0.1% DMSO) for 5 minutes. PMNL were stimulated with 1 μmol/L of thapsigargin for 15 minutes at 37°C. The stimulation was then stopped, and samples were processed for analysis of 5‐LO products using RP‐HPLC. Total 5‐LO products measured represent LTB4, its trans isomers, 20‐OH‐LTB4, 20‐COOH‐LTB4 and 5‐hydroxyeicosatetraenoic acid. Data are expressed as means ± SEM of at least three independent experiments. *Difference from control, as determined using one‐way ANOVA with Dunnett's multiple comparison test (P < .05)

CC(c1cc2ccccc2s1)N(O)C(N)=O (stereo not shown) [Zileuton (1), Zileuton, reference compound]
Inhibitory activity against 5‐LO product biosynthesis after incubation with HepaRG cells (HepaRG cells [1]): steady manner over time
Inhibition of biosynthesis of 5‐LO products in transfected HEK293 cells (5‐LO [2]): less effective than CAPE (2)

O=C(C=Cc1ccc(O)c(O)c1)NCCc1ccccc1 [amide analogue of CAPE]
Inhibition of LT biosynthesis and 5‐LO activity (5‐LO [3]): reduced potency compared to CAPE

O=C(O)/C=C/c1ccc(O)c(O)c1 [caffeic acid]
Inhibition of LT biosynthesis and 5‐LO activity (5‐LO [3]): poor 5‐LO inhibitor

O=C(C=Cc1ccccc1)OCCc1ccccc1 [cinnamic acid phenethyl ester]
Inhibition of LT biosynthesis (5‐LO [3]; at concentrations up to 10 µmol/L): do not inhibit LT biosynthesis

O=C(/C=C/c1cccc(O)c1O)OCCc1ccccc1 [compound 3]
Inhibition of biosynthesis of 5‐LO products in transfected HEK293 cells (5‐LO [2]): very good inhibitory activity

O=C(/C=C/c1ccc(O)cc1O)OCCc1ccccc1 [compound 4]
Inhibition of biosynthesis of 5‐LO products in transfected HEK293 cells (5‐LO [2]): without measurable effect; also recorded: without inhibitory activity

O=C(/C=C/c1cc(O)cc(O)c1)OCCc1ccccc1 [compound 6]
Inhibition of biosynthesis of 5‐LO products in transfected HEK293 cells (5‐LO [2]): without measurable effect; also recorded: without inhibitory activity

COc1cc(/C=C/C(=O)OCCc2ccccc2)cc(OC)c1O [compound 9, sinapic acid phenethylester]
Inhibitory activity against 5‐LO product biosynthesis after incubation with HepaRG cells (HepaRG cells [1]): lost all their inhibitory activity
Half-life in HepaRG cell cultures (HepaRG cells [4]): 4.38 (4.23 - 4.55) Minutes
IC50 (5‐LO [5]): 1.91 µM
IC50 (5‐LO [6]): 0.29 µM

O=C(CCc1ccc(O)c(O)c1)OCCc1ccccc1 [saturated form of CAPE (2)]
Inhibition of 5‐LO product biosynthesis (5‐LO [3]): as effective
